The source of these data is patent publication US20060247318A1, “Small molecule inhibitors of STAT3 and the uses thereof” (priority 2005, published 2006).

In assay [1] the test system is Stat3. Nature of the assay: Stat3-dependent luciferase reporter (pLucTKS3) in Caov-3 cloned cells. Format: cell-based. The following applies: pLucTKS3, 20 μM, 48 h. The method, then:
(§1) FIGS. 2A-2B show the inhibition of Stat3 dependent luciferase activity in cancer cells by STA-21. (A) The clone from Caov-3 carcinoma cells stably transfected with pLucTKS3 Stat3-dependent luciferase reporter was used for initial Sat3 small molecule inhibitor screening. The cloned cells were treated with 20 μM of STA-21 as well as other small molecule compounds for 48 h, then the cells were harvested for luciferase activity analysis. (B) The clones from MDA-MB-435s cells stably transfected with pLucTKS3 Stat3-dependent luciferase reporter or SV40 luciferase reporter were treated with 20 μM of STA-21 for 48 h. Luciferase activity was measured using a Promega luciferase kit according to the manufacturer's instructions. The results were based on the averages and standard deviations from three separate experiments.
(§2) The 100 selected inhibitors were evaluated using a Stat3 luciferase reporter system. Both MDA-MB-435s breast carcinoma cells and Caov-3 ovarian carcinoma cells express constitutively activated Stat3 (Song et al., Int. J. Oncol. 24:1017 (2004); Song et al., Biochem. Biophys. Res. Commun. 314:143 (2004)). […] The selected clones were exposed to Stat3 inhibitors at a final concentration of 20 μM for 48 h and luciferase activity was measured using a Promega Luciferase kit (Madison, Wis.).
Background: Reporter assays use an easily measured gene product as a stand-in for the process of interest.

Assay [2] relates to Stat3. Nature of the assay: Stat3-dependent luciferase reporter (pLucTKS3) in MDA-MB-435s cloned cells. Format: cell-based. The following applies: pLucTKS3, 20 μM, 48 h. On the procedure:
as §1, §2

For assay [3], the system named is SV40 luciferase reporter. As to the kind of experiment: SV40 luciferase reporter (control lacking Stat3 binding sites) in MDA-MB-435s clones. The following applies: reporter without Stat3 DNA binding site, 20 μM, 48 h. Format: cell-based. The method, then: as §1, §2
Assay [4] relates to Stat3. Nature of the assay: Electrophoretic mobility shift assay, MDA-MB-435s nuclear extract. In kind it is biochemical. Conditions: 30 μM, 30 min. On the procedure:
(§3) FIGS. 3A-3B show the inhibition of Stat3 DNA binding activity and Stat3-regulated anti-apoptotic factors by STA-21. (A) MDA-MB-435s cell nuclear extract was incubated with 30 μM STA-21 for 30 min at room temperature, and then incubated with r-^32P-ATP labeled consensus binding sequence for 20 min at room temperature. The reaction mixtures were resolved on 8% polyacrylamide gel. (B) The lysates from MDA-MB-468 cells treated with the indicated concentrations of STA-21 for 48 h were resolved on 10% SDS-PAGE, then immunoblotted with antibodies as indicated.
(§4) It was next examined whether or not STA-21 could reduce Stat3 DNA binding activity using electrophoretic mobility shift assays as reported (Turkson et al., J. Biol. Chem. 276:45443 (2001)). In MDA-MB-435s breast carcinoma cells with constitutive Stat3 signaling, high Stat3 DNA binding activity was observed (FIG. 3A).

Assay [5] addresses T1, Stat1 (Homo sapiens, UniProt P42224).
T1 construct: MDA-MB-435s cell nuclear extract was incubated with 30 μM STA-21 for 30 min at room temperature; endogenous in cells; host or cells: MDA-MB-435s nuclear extract
T1 sequence (P42224 1-750): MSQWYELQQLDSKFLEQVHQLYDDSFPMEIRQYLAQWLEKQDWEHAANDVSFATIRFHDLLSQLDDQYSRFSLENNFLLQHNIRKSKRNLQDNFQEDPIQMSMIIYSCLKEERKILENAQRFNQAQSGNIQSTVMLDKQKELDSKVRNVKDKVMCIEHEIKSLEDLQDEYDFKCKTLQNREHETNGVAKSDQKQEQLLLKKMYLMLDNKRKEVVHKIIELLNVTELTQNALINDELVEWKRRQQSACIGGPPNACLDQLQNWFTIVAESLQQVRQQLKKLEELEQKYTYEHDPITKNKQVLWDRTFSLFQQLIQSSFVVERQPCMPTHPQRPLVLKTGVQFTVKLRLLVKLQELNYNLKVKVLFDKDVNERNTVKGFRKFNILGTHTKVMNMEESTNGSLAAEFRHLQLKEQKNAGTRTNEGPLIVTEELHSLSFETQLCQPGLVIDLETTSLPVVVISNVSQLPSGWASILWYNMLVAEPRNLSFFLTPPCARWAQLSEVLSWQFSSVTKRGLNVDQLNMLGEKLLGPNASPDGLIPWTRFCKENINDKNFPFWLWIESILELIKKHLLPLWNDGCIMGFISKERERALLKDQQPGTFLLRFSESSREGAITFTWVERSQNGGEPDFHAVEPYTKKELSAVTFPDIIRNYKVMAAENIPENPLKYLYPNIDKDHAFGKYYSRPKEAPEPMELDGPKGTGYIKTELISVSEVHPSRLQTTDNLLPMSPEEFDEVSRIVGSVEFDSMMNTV
Nature of the assay: Electrophoretic mobility shift assay, MDA-MB-435s cells. In kind it is biochemical. A general note: Mobility shift assays separate free from complexed probe on a gel.

Assay [6] concerns Stat5. The assay is described as above. Format: biochemical.
Assay [7] deals with AKT (P-AKT). Nature of the assay: Western blot of MDA-MB-468 cell lysates. In kind it is cell-based. The following applies: MDA-MB-468 cells, 48 h. On the procedure: as §3, §4
Assay [8] concerns Bcl-XL. Nature of the assay: Western blot of MDA-MB-468 cell lysates. Format: cell-based. The following applies: MDA-MB-468 cells, 20 or 30 μM, 48 h. On the procedure: as §3, §4
For orientation: Immunoblotting shows a protein as a band on a membrane.

Assay [9] relates to ERK (P-ERK). Nature of the assay: Western blot of MDA-MB-468 cell lysates. Format: cell-based. Conditions: MDA-MB-468 cells, 48 h. The method, then:
as §3, §4

The test system of assay [10] is MCF7. As to the kind of experiment: Sub-G1 flow cytometry (apoptotic cells), survival. In kind it is cell-based. Conditions: MCF7, no constitutive Stat3 signaling, 20 μM or 30 μM, 48 h. On the procedure:
(§5) (A) The phosphorylation of Stat3 at Y-705 in different cell lines. (B) The cell lines were treated with STA-21 at concentrations as indicated for 48 h, and then cells were harvested and analyzed for the Sub-G1 profile that indicated apoptotic cells on a FACScan Flow Cytometer (Becton Dickinson, San Jose, Calif.). The results were based on the averages and standard deviations from three separate experiments.
(§6) Since STA-21 inhibited Stat3-dependent luciferase and DNA binding activities, it was next examined whether STA-21 inhibited the growth and survival of breast cancer cells with constitutive Stat3 signaling. […] The Stat3 status of the cell lines was confirmed by measurement of phosphorylated Stat3 (FIG. 4A).

Assay [11] deals with MDA-MB-231. As to the kind of experiment: Sub-G1 flow cytometry (apoptotic cells), survival. Format: cell-based. Conditions: MDA-MB-231, constitutively activated Stat3, 20 μM or 30 μM, 48 h. On the procedure: as §5, §6
Assay [12] deals with MDA-MB-435s. Nature of the assay: Sub-G1 flow cytometry (apoptotic cells), survival. Format: cell-based. Conditions: constitutively activated Stat3, 20 μM or 30 μM, 48 h. On the procedure: as §5, §6
Assay [13] has as its system MDA-MB-453. Nature of the assay: Sub-G1 flow cytometry (apoptotic cells), survival. In kind it is cell-based. The following applies: MDA-MB-453, no constitutive Stat3 signaling, 20 μM or 30 μM, 48 h. On the procedure: as §5, §6
For assay [14], the system named is MDA-MB-468. Nature of the assay: Sub-G1 flow cytometry (apoptotic cells), survival. In kind it is cell-based. Conditions: MDA-MB-468, constitutively activated Stat3, 20 μM or 30 μM, 48 h. On the procedure: as §5, §6
The test system of assay [15] is human skin fibroblasts (HSF). Nature of the assay: Sub-G1 flow cytometry (apoptotic cells), survival. The following applies: no constitutive Stat3 signaling, 20 μM or 30 μM, 48 h. In kind it is cell-based. The method, then:
as §5, §6

Assay [16] has as its system breast cancer cells that contain constitutively active Stat3. Nature of the assay: Cell viability assays using MTT. In kind it is cell-based.
Source text: as §6

The subject of assay [17] is Stat3. Nature of the assay: Co-immunoprecipitation of Stat3-Flag and Stat3-HA (dimerization) in MDA-MB-435s cells. Format: cell-based. The following applies: 20 μM, 24 h. An excerpt:
(A) Untransfected and untreated MDA-MB-435s cells. (B and E) Cells cotransfected with pCMV-Stat3-Flag and pCMV-Stat3-HA plasmids were immunostained with anti-flag IgG-Rhodamine. (B) Untreated cells and (E) STA-21 treated cells. (C and F) Transfected cells were immunostained with anti-HA IgG-FITC. (C) Untreated cells and (F) STA-21 treated cells. (D and G) Transfected cells were co-immunostained with both anti-HA IgG-FITC and anti-flag IgG-Rhodamine. […] (H) MDA-MB-435s cells were cotransfected with pCMV-Stat3-Flag and pCMV-Stat3-HA plasmids and were exposed to 20 μM STA-21 for 24 h, then cell lysates were immunoprecipitated with anti-HA or anti-Flag antibodies. Immunoprecipitates were resolved on 10% SDS-PAGE and then immunoblotted with anti-HA, anti-Flag or anti-Stat3 antibodies.
The effect of STA-21 on Stat3 in vivo dimerization in breast cancer MDA-MB-435s cells was also investigated. After the exposure to 20 μM STA-21 for 24 h, the cells were harvested and the lysates from the cells expressing Stat3-Flag and Stat3-HA tagged proteins were immunoprecipitated with an anti-Flag or anti-HA antibody, respectively. The immunoprecipitated reaction mixtures were resolved on a 10% SDS-PAGE and immunoblotted with an anti-HA, anti-Flag, or anti-Stat3 antibody, respectively.

Consider `C[C@@H]1CC(=O)c2c(ccc3c2C(=O)c2cccc(O)c2C3=O)C1` [STA-21], for which the “effect on Stat3 induced luciferase activity” value in assay [1] was “remarkable inhibitory effect”. The luciferase activity entry in assay [2] was “decreased more than five fold”. Further, the “luciferase activity, SV40 luciferase reporter” value in assay [3] is “did not affect luciferase activity”. Also, the “Stat3 DNA binding activity” value in assay [4] is given as “inhibited Stat3 DNA binding activity”. The “Stat1 DNA binding activity” value in [5] was “not Stat1 and Stat5 DNA binding activity”. For the same compound, in assay [6], the “Stat5 DNA binding activity” value is “not Stat1 and Stat5 DNA binding activity”. Also, in assay [7], the “phosphorylation of AKT (P-AKT)” value is “did not affect the phosphorylation”. Besides, the “downstream anti-apoptotic effector Bcl-XL, Western blot” value in [8] is recorded as “inhibited the downstream anti-apoptotic effector Bcl-XL”. Also, the “phosphorylation of ERK (P-ERK)” value in assay [9] is on record as “did not affect the phosphorylation”. The “inhibition of survival (sub-G1)” value in assay [10], in assay [13] and in assay [15] was “minimal inhibitory effect” each time. Moreover, the “inhibition of survival (accumulation of cells in sub-G1 phase)” value in [11], in assay [12] and in assay [14] was “remarkable inhibitory activity” each time. Besides, the “growth and survival, cell viability (MTT) combined with sub-G1 data” value in assay [16] was “strong potential to inhibit the growth and survival”. Besides, the “Stat3 dimerization between Stat3-Flag and Stat3-HA proteins” value in assay [17] is reported as “abrogated Stat3 dimerization”.
